Data reported in ChEMBL document CHEMBL4706764, “PROTAC-Mediated Degradation of Janus Kinase as a Therapeutic Strategy for Cancer and Rheumatoid Arthritis” (ACS Med Chem Lett, 2021).

Biological target: Protein cereblon/Tyrosine-protein kinase JAK2 (Homo sapiens, UniProt O60674+Q96SW2)
Experiment: PROTAC activity at CRBN/JAK2 in human MHHCALL4 cells assessed as protein degradation by immunoblot analysis
Format: cell-based

Protein cereblon/Tyrosine-protein kinase JAK2, sequence (O60674 whole entry): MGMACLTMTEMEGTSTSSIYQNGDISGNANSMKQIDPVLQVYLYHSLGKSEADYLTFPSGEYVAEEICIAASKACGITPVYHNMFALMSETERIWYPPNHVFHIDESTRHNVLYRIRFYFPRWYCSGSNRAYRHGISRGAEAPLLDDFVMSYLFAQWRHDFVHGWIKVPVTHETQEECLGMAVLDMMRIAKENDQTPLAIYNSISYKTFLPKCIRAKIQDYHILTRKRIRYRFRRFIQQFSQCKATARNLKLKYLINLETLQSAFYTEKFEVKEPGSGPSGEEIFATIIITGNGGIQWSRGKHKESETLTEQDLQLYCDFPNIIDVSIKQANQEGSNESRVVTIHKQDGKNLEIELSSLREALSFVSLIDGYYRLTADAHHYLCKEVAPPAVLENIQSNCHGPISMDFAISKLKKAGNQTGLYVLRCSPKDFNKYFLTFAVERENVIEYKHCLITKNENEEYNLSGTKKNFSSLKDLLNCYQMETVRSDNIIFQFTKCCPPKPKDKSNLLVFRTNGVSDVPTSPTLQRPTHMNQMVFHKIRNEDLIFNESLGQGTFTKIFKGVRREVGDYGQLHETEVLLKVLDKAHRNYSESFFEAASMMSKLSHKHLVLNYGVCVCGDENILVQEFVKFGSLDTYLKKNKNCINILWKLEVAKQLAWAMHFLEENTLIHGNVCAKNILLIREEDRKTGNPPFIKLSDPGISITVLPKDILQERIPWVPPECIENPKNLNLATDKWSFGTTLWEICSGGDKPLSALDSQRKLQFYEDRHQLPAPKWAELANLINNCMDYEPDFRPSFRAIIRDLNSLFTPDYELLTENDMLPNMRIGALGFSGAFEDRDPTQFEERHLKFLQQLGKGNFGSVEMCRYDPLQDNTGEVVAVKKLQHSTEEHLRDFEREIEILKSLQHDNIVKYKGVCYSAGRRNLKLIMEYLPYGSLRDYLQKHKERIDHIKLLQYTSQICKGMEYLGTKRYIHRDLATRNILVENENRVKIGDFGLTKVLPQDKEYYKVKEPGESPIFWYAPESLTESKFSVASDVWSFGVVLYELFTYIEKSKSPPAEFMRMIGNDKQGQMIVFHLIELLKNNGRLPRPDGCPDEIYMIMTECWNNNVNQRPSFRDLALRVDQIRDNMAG
Protein cereblon/Tyrosine-protein kinase JAK2, sequence (Q96SW2 whole entry): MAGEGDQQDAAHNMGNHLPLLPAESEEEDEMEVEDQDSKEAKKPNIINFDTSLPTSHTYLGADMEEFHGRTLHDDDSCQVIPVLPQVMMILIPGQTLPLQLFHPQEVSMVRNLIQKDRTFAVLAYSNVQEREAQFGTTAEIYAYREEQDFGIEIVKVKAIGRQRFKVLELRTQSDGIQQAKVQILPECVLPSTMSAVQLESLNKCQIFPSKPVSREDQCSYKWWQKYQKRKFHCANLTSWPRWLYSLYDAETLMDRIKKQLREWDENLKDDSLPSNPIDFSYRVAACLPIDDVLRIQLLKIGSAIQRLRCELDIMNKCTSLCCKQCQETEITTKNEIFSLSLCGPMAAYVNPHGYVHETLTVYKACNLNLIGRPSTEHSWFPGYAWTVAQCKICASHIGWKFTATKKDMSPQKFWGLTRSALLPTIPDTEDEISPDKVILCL

Question: How did the EC50 turn out when `CCCn1cc(-c2nc(Nc3ccc(C(=O)NCCCCCNc4cccc5c4C(=O)N(C4CCC(=O)NC4=O)C5=O)cc3)nc3[nH]ccc23)cn1` (stereo not drawn) was run?
Answer: 0.9 nM

Question: How did the EC50 turn out when `CCCn1cc(-c2nc(Nc3ccc(C(=O)NCCOCCOCCOCCOCCNc4cccc5c4C(=O)N(C4CCC(=O)NC4=O)C5=O)cc3)nc3[nH]ccc23)cn1` (stereo not drawn) was run?
Answer: 2300 nM

Question: For `CCCn1cc(-c2nc(Nc3ccc(C(=O)NCCOCCOCCOCCOCCOCCOCCNc4cccc5c4C(=O)N(C4CCC(=O)NC4=O)C5=O)cc3)nc3[nH]ccc23)cn1` (stereo not drawn), which EC50 is on record?
Answer: 720 nM

Question: For `CCCn1cc(-c2nc(Nc3ccc(C(=O)NCCOCCOCCOCCOCCOCCNc4cccc5c4C(=O)N(C4CCC(=O)NC4=O)C5=O)cc3)nc3[nH]ccc23)cn1` (stereo not drawn), which EC50 is on record?
Answer: 1100 nM

Question: Which EC50 does the source give for `N#CC[C@H](C1CCCC1)n1cc(-c2nc(Nc3ccc(C(=O)NCCCCNc4cccc5c4C(=O)N(C4CCC(=O)NC4=O)C5=O)cc3)nc3[nH]ccc23)cn1` (stereo partly drawn) here?
Answer: 3.9 nM

Question: How did the EC50 turn out when `CCCn1cc(-c2nc(Nc3ccc(C(=O)NCCCNc4cccc5c4C(=O)N(C4CCC(=O)NC4=O)C5=O)cc3)nc3[nH]ccc23)cn1` (stereo not drawn) was run?
Answer: 0.5 nM

Question: For `CCCn1cc(-c2nc(Nc3ccc(C(=O)NCCCCCNc4cccc5c4CN(C4CCC(=O)NC4=O)C5=O)cc3)nc3[nH]ccc23)cn1` (stereo not drawn), which EC50 is on record?
Answer: 0.5 nM

Question: With `CCCn1cc(-c2nc(Nc3ccc(C(=O)NCCCCNc4cccc5c4C(=O)N(C4CCC(=O)NC4=O)C5=O)cc3)nc3[nH]ccc23)cn1` (stereo not drawn) as the compound, how does the EC50 read?
Answer: 0.2 nM
